Reference: article PMC9330635, “Halogenated Pyrrolopyrimidines with Low MIC on Staphylococcus aureus and Synergistic Effects with an Antimicrobial Peptide” (Antibiotics, 2022)
In brackets after ≈: the same amount, converted by molar mass. Where two headings read alike, the source gives them in different places.

Columns and labels:
E. coli (MG1655) = experiment: MIC by broth microdilution, E. coli; assay type: cell-based, Escherichia coli; conditions: E. coli MG1655, broth microdilution; for MIC: Escherichia coli
Description: (§1) In this study, we have, therefore, altered our strategy and used minimal inhibitory concentration assays to identify and improve antibacterial agents. A total of 10 pyrrolopyrimidines with variation of the 4-amino group were assayed for their MIC in E. coli (MG1655) and S. aureus (ATCC29213) using the broth microdilution method. Subsequently, the compounds were also counter-screened for their inhibition of human EGFR.
(§2) The MIC of compound 1–21 towards Escherichia coli (MG1655) and Staphylococcus aureus (ATCC29213) was determined following the standards that were recommended by the Clinical and Laboratory Standards Institute (CLSI) for the broth microdilution method. Briefly, the bacterial suspensions were adjusted to 0.5 McFarland standard (~1 × 10^8 colony forming units (CFU)/mL) and diluted 1:200 in Cation-Adjusted Mueller-Hinton Broth (CAMHB, […], […]). The suspension was subsequently added to polypropylene microtiter plates (100 µL/well, ~5 × 10^4 CFU/well) that were already prepared with different concentrations of the various halogenated fused pyrimidines (11 µL/well, two-fold serial dilutions). The plates were incubated at 37 °C overnight before inspection for visible growth and determination of the MIC values.

S. aureus (ATCC29213) = experiment: MIC by broth microdilution, S. aureus; assay type: cell-based, Staphylococcus aureus; conditions: for MIC: Staphylococcus aureus; for Activity towards S. aureus (in words): culture, MIC assay
Description: as §1, §2

human EGFR = target: T1, human EGFR (Homo sapiens, UniProt P00533); experiment: Enzymatic EGFR (ErbB1) inhibition, Z'-LYTE; assay type: biochemical; conditions: 100 nM compound, ATP equal to KM
T1 construct: purchased Invitrogen (ThermoFisher), assay service
Description: The compounds were supplied in a 10 mM DMSO solution, and enzymatic EGFR (ErbB1) inhibition potency was determined by Invitrogen (ThermoFisher) using their Z’-LYTE® assay technology. The compounds were tested for their inhibitory activity at 100 nM in duplicates. The IC50 values that were reported for 1 and 5 are based on the average of 2 titration curves (20 data points), and were calculated from activity data with a four-parameter logistic model using SigmaPlot (Windows Version 12.0 from Systat Software, Inc., Palo Alto, CA, USA). Unless stated otherwise, the ATP concentration that was used was equal to apparent KM.

S. aureus = experiment: MIC towards S. aureus in combination with the peptide betatide; assay type: cell-based, Staphylococcus aureus; conditions: betatide 8 mg/L (half its MIC)
Description: The concentration of betatide was 8 mg/L, which corresponds to half the MIC concentration.
as §2

[1] = S. aureus ATCC29213, broth microdilution, read-out: S. aureus MIC
[2] = ATCC29213, S. aureus, single agent (Table 3), read-out: Single Comp. MIC

Compound	MIC (E. coli (MG1655)) [µg/mL]	MIC (S. aureus (ATCC29213); [1]) [µg/mL]	Activity towards S. aureus (in words) (S. aureus (ATCC29213))	inhibition at 0.1 µM (human EGFR) [%]	melting point	Combination with Betatide MIC (S. aureus) [µg/mL]	MIC (S. aureus (ATCC29213); [2]) [µg/mL]	E. coli MIC (E. coli (MG1655)) [µg/mL]	S. aureus MIC (S. aureus (ATCC29213); S. aureus ATCC29213, broth microdilution) [µg/mL]	Human EGFR % inhibition (human EGFR) [%]
C[C@@H](Nc1ncnc2[nH]c(-c3ccc(O)cc3)cc12)c1ccc(F)cc1 [Compound 3]	> 128	> 128	inactive	92						
C[C@@H](Nc1ncnc2sc(-c3ccc(O)cc3)cc12)c1ccc(Br)cc1 (hydrate or solvate) [Compound 21, (R)-4-(4-((1-(4-Bromophenyl)ethyl)amino)thieno[2,3-d]pyrimidin-6-yl)phenol]					144.1 to 145.4 °C					
C[C@@H](Nc1ncnc2[nH]c(-c3ccc([N+](=O)[O-])cc3)cc12)c1ccc(Br)cc1 [Compound 14, (R)-N-(1-(4-Bromophenyl)ethyl)-6-(4-nitrophenyl)-7H-pyrrolo [2,3-d] pyrimidin-4-amine]	> 128	> 128		33						
C[C@@H](Nc1ncnc2[nH]c(-c3ccccc3)cc12)c1ccc(Br)cc1 [Compound 12, (R)-N-(1-(4-Bromophenyl)ethyl)-6-phenyl-7H-pyrrolo[2,3-d] pyrimidin-4-amine]	> 128	> 128		66						
C[C@H](Nc1ncnc2[nH]c(-c3ccc(O)cc3)cc12)c1ccc(Br)cc1 [Compound 9, (S)-4-(4-((1-(4-Bromophenyl)ethyl)amino)-7H-pyrrolo[2,3-d]pyrimidin-6-yl)phenol]	> 128	> 128	abolished all activity							
C[C@@H](Nc1ncnc2[nH]c(-c3ccc(F)cc3)cc12)c1ccc(Br)cc1 [Compound 13, (R)-N-(1-(4-Bromophenyl)ethyl)-6-(4-fluorophenyl)-7H-pyrrolo[2,3-d] pyrimidin-4-amine]	> 128	> 128		58						
C[C@@H](Nc1ncnc2[nH]c(-c3ccc(N)cc3)cc12)c1ccc(Br)cc1 [Compound 15, (R)-6-(4-Aminophenyl)-N-(1-(4-bromophenyl)ethyl)-7H-pyrrolo[2,3-d]pyrimidin-4-amine]	> 128	> 128		90						
C[C@@H](Nc1ncnc2[nH]c(-c3ccc(S(N)(=O)=O)cc3)cc12)c1ccc(Br)cc1 [Compound 17, (R)-4-(4-((1-(4-Bromophenyl)ethyl)amino)-7H-pyrrolo[2,3-d]pyrimidin-6-yl)benzene-sulfonamide]	> 128	> 128		85						
C[C@@H](Nc1ncnc2[nH]c(-c3ccc(O)cc3)cc12)c1ccc(I)cc1 (hydrate or solvate) [Compound 6, (R)-4-(4-((1-(4-Iodophenyl)ethyl)amino)-7H-pyrrolo[2,3-d]pyrimidin-6-yl)phenol]					254.9 to 256 °C (dec.)					
C[C@@H](Nc1ncnc2[nH]c(-c3cccc(O)c3)cc12)c1ccc(Br)cc1 [Compound 19, (R)-3-(4-((1-(4-Bromophenyl)ethyl)amino)-7H-pyrrolo[2,3-d]pyrimidin-6-yl)phenol]	> 128	16 (≈ 39.1 µM)		73		2	8 (≈ 19.5 µM)			
COC(=O)c1ccc(-c2cc3c(N[C@H](C)c4ccc(Br)cc4)ncnc3[nH]2)cc1 [Compound 16, Methyl (R)-4-(4-((1-(4-bromophenyl)ethyl)amino)-7H-pyrrolo[2,3-d]pyrimidin-6-yl)be-nzoate]	> 128	> 128		42						
C[C@@H](Nc1ncnc2sc(-c3ccc(O)cc3)cc12)c1ccc(Br)cc1 [Compound 21, (R)-4-(4-((1-(4-Bromophenyl)ethyl)amino)thieno[2,3-d]pyrimidin-6-yl)phenol]	> 128	32 (≈ 75.1 µM)		5		4	32 (≈ 75.1 µM)			
(R)-4-(4-((1-(4-Bromophenyl)ethyl)(methyl)amino)-7H-pyrrolo [2,3-d]pyrimidin-6-yl)phenol [Compound 10]			abolished all activity					>128	>128	16
C[C@@H](Nc1ncnc2[nH]c(-c3ccc(O)cc3)cc12)c1ccc(Cl)cc1 [Compound 4, (R)-4-(4-((1-(4-Chlorophenyl)ethyl)amino)-7H-pyrrolo[2,3-d]pyrimidin-6-yl)phenol]	> 128	16 (≈ 43.9 µM)		91	216.6 °C (dec.)	4	16 (≈ 43.9 µM)			
Cc1ccc([C@@H](C)Nc2ncnc3[nH]c(-c4ccc(O)cc4)cc23)cc1 [Compound 2, (R)-4-(4-((1-(p-Tolyl)ethyl)amino)-7H-pyrrolo[2,3-d]pyrimidin-6-yl)phenol]	> 128	16 (≈ 46.5 µM)		91		8	16 (≈ 46.5 µM)			
COc1ccc(-c2cc3c(N[C@@H](C)c4ccc(Br)cc4)ncnc3[nH]2)cc1 [Compound 11, (S)-N-(1-(4-Bromophenyl)ethyl)-6-(4-methoxyphenyl)-7H-pyrrolo[2,3-d]pyrimidin-4-amine]	> 128	> 128								
Oc1ccc(-c2cc3c(NCc4ccc(Br)cc4)ncnc3[nH]2)cc1 [Compound 8, 4-(4-((4-Bromobenzyl)amino)-7H-pyrrolo[2,3-d]pyrimidin-6-yl)phenol]	> 128	> 128	abolished all activity	67						
COc1ccc(-c2cc3c(N[C@H](C)c4ccc(Br)cc4)ncnc3s2)cc1 [Compound 20, (R)-N-(1-(4-Bromophenyl)ethyl)-6-(4-methoxyphenyl)thieno [2,3-d] pyrimidin-4-amine]	> 128	> 128	no activity	12	107.1 to 109.4 °C					
C[C@@H](Nc1ncnc2[nH]c(-c3ccccc3O)cc12)c1ccc(Br)cc1 [Compound 18, (R)-2-(4-((1-(4-Bromophenyl)ethyl)amino)-7H-pyrrolo[2,3-d]pyrimidin-6-yl)phenol]	> 128	> 128		80						
C[C@@H](Nc1ncnc2[nH]c(-c3ccc(O)cc3)cc12)c1cccc(Br)c1 [Compound 7, (R)-4-(4-((1-(3-Bromophenyl)ethyl)amino)-7H-pyrrolo[2,3-d]pyrimidin-6-yl)phenol]	> 128	16 (≈ 39.1 µM)		89		4	16 (≈ 39.1 µM)			
C[C@@H](Nc1ncnc2[nH]c(-c3ccc(O)cc3)cc12)c1ccc(I)cc1 [Compound 6, (R)-4-(4-((1-(4-Iodophenyl)ethyl)amino)-7H-pyrrolo[2,3-d]pyrimidin-6-yl)phenol]	> 128	8 (≈ 17.5 µM)		43		2	8 (≈ 17.5 µM)			
